Data reported in patent publication US20210268070A1, “Use of Immunomodulators to Control Infection and Stimulate Healing in Normal and Diabetic Wounds” (priority 2018, published 2021).

What was measured:
P. aeruginosa PA103 [1] = assay: Implant model of infection with PA103; type: in vivo; settings: C57B mice, 10^6 PA103, topical at surgical site at time of surgery & infection, 10 ng or 100 ng, dose-dependent, 24 h following infection, FIG. 2A
Experimental: (§1) The implant model of infection in C57B mice was used for 10^6 PA103 (FIG. 2A) or 10^6 USA300 MRSA (FIG. 2C). The wound model of infection was used for 10^6 PA103 in C57BL mice (FIG. 2B) or diabetic db/db mice (FIG. 2D). Infection was carried out at the time of surgery by adding bacteria directly to the surgical sites. Immunomodulators, namely, LPS (10 ng or 100 ng), fMLP (10 ng or 100 ng), CCL3 (1 μg) were added topically at the surgical sites at the time of surgery & infection. GM-CSF (10 μg/kg), tobramycin (Tob at 3.5 mg/kg), and vancomycin (40 mg/kg) were added systemically by i.p. injection 1 h before surgical implantation and infection. Infection levels were determined 24 h following infection (N>4 animals/group; NS=not significant, * p<0.01, ** p<0.001, ***p<0.0001 One-way ANOVA).
(§2) We assessed these immunomodulators for their ability to control wound and/or implant SS's in normal (C57BL/6) or diabetic (db/db) mice. We acknowledge that diabetic individuals are not as immunocompromised as other immunocompromised patient groups. […] All immunomodulators were added locally at the surgical sites at the time of infection, except GM-CSF (10 μg/kg) which was administered systemically by i.p. injection 1 h prior to surgery per its FDA-approved route of delivery. […] CCL3 and GM-CSF are also tested using the implant model of infection. Here, we tested CCL3 and GM-CSF in the wound model of infection in C57B mice.
(§3) Implant surgery and wound surgery and surgical site infection are performed according to the following method. On the day of surgery, all mice are anesthetized by an intraperitoneal injection of a ketamine/xylazine mixture (90 mg/kg ketamine+5 mg/kg xylazine for mice). The back of the animals is shaved using an electric shave and scrubbed with alcohol swabs 3 times, a topical antiseptic solution (Hibiclens; chlorhexidine gluconate) is applied to the skin. The surgical procedures are performed with sterile instruments, sterile surgical gloves, and aseptic techniques as follows. […]

USA300 MRSA = assay: Implant model of infection with USA300 MRSA; type: in vivo; settings: C57B mice, 10^6 CFU USA300, implant model, topical LPS or fMLP vs vancomycin 40 mg/kg i.p., 24 h, FIG. 2C
Experimental: as §1
(15A) C57BL/6 mice received 40 mg/kg prophylaxis (Sys) vancomycin (Vanc) or 3.5 mg/kg tobramycin (Tobra) by i.p. injection. (15A) 1 h after antibiotic administration, 106 CFU of USA300 was added to implant after insertion into facia (Implant Model). (15B) 1 h after antibiotic administration, 10^6CFU of USA300 or 106CFU PA103 (Pa) were added full-thickness wounds in of C57BL/6 (Wound Model). Infection levels at implant surgical site (Tissue & Implant) or a distant site (Spleen), or wound tissues were assessed 24 h following infection. (N>4 animals/group, * p<0.01, ***p<0.0001, One-way ANOVA).
as §2
as §3, with “follows. For wound surgical procedure, a sterile biopsy punch (5-7 mm diameter) is used to punch through the full thickness of the back skin below the shoulder blades.” for “follows.”

P. aeruginosa PA103 [2] = assay: Wound model of infection with PA103 in diabetic db/db mice; type: in vivo; settings: for infection control against P. aeruginosa in diabetic wounds infected with PA103: 10^6 PA103, topical at time of surgery & infection, 24 h, FIG. 2D
Experimental: as §1, §2
Implant surgery and wound surgery and surgical site infection are performed according to the following method. On the day of surgery, all mice are anesthetized by an intraperitoneal injection of a ketamine/xylazine mixture (90 mg/kg ketamine+5 mg/kg xylazine for mice). The back of the animals is shaved using an electric shave and scrubbed with alcohol swabs 3 times, a topical antiseptic solution (Hibiclens; chlorhexidine gluconate) is applied to the skin. The surgical procedures are performed with sterile instruments, sterile surgical gloves, and aseptic techniques as follows. For wound surgical procedure, a sterile biopsy punch (5-7 mm diameter) is used to punch through the full thickness of the back skin below the shoulder blades. Four 5-7 mm skin wounds are made on the back of each mouse. Wounds placed in this area cannot be reached by the animals and therefore are protected from self-licking. For implant surgery, a 4-mm long lateral skin incision is made on the upper back, and the skin is retracted. The space above the muscle is opened using blunt dissection with fine forceps, to create a rostral fascia indentation. Then, immunomodulators at indicated concentrations (in a 20 μL volume) or PBS control are injected into the fascia indentation. After a 1 min wait for fluid to be absorbed, a disc implant, (1.87 mm diameter, 0.68 mm thick (Part # VP 724F-1)), is inserted in the fascia indentation. […] For implant surgery, the fascia indentation is left open, while the skin is closed with 4-0 nylon sutures. The fascia above the back muscles in mice is too thin and fragile to allow it to be sutured closed around the implant.

[3] = tested on: inflammatory responses (IL-1 β, TNFα); assay: Neutrophilia and inflammatory responses in diabetic wounds; type: in vivo, db/db mice
Description: P. aeruginosa PA103 10^3 N=4; Significance determined as compared to PBS *<0.05, **p<0.01, ***p<0.001.
FIG. 13A illustrates that TLR4 ligand increases antimicrobial defenses in diabetic wounds against P. aeruginosa and FIG. 13B TLR4 ligand stimulates inflammatory responses in diabetic wounds. N=4; Significance determined as compared to PBS *<0.05, **p<0.01, ***p<0.001.
Tissue-Tek O.C.T. (Sakura); Lysing Matrix D (MP Biomedicals); Collagenase (Roche Diagnostics), Hematoxylin and eosin (H&E); DNase 1 (Sigma-Aldrich); Hyluronidase, Streptozotocin (Sigma-Aldrich); Trizol (Invitrogen); CD45 antibody (eBioscience, Inc); Ly6C; Ly6G; CD11b; CD3 (BioLegend); CD68; GAPDH (Sigma-Aldrich). Ly6G and CD68 (Abcam); Primer pairs for GAPDH were from Qiagen. Masson's trichrome stain (Sigma-Aldrich); Picrosirius red (Abcam); Fibronectin (Chemicon International); Insulin slow-release capsules (Linplant; LinShin, Toronto, Canada) CCL3 (R&D Systems) fMLP (Sigma-Aldrich); II-1β ELISA (R&D Systems); TNF-α ELISA (R&D Systems).

## CSCC[C@H](NC=O)C(=O)N[C@@H](CC(C)C)C(=O)N[C@@H](Cc1ccccc1)C(=O)O [fMLP, N-Formylmethionyl-leucyl-phenylalanine]
P. aeruginosa PA103 [1]
  P. aeruginosa infection levels on both the implants and tissues surrounding implants: significantly reduced
USA300 MRSA
  controlling USA300 MRSA infection, compared with prophylaxis vancomycin: as effective (if not more)
P. aeruginosa PA103 [2]; db/db mice
  infection control against P. aeruginosa in diabetic wounds infected with PA103: significantly improved

## lipopolysaccharide [LPS]
P. aeruginosa PA103 [1]
  P. aeruginosa infection levels on both the implants and tissues surrounding implants: significantly reduced
USA300 MRSA
  controlling USA300 MRSA infection, compared with prophylaxis vancomycin: as effective (if not more)
P. aeruginosa PA103 [2]; compared to PBS, FIG. 13A
  antimicrobial defenses in diabetic wounds against P. aeruginosa: increases
P. aeruginosa PA103 [2]; db/db mice
  infection control against P. aeruginosa in diabetic wounds infected with PA103: significantly improved
[3]; compared to PBS, FIG. 13B
  inflammatory responses in diabetic wounds: stimulates

B1: Chemokine (C-C motif) ligand 3 (protein, listed as Homo sapiens)
chain: MQVSTAALAVLLCTMALCNQFSASLAADTPTACCFSYTSRQIPQNFIADYFETSSQCSKPGVIFLTKRSRQVCADPSEEWVQKYVSDLELSA
notes: class 1 immunomodulator
P. aeruginosa PA103 [2]; P. aeruginosa PA103 10^3, compared to PBS, FIG. 11A
  infection control in diabetic wounds: increases
P. aeruginosa PA103 [2]; db/db mice
  infection control against P. aeruginosa in diabetic wounds infected with PA103: significantly improved
P. aeruginosa PA103 [2]; db/db mice, PA103, FIG. 2D
  infection control in diabetic animals, compared with LPS or fMLP: significantly more effective
[3]; P. aeruginosa PA103 10^3, FIG. 12A
  neutrophilia in infected diabetic wounds: does not lead to
[3]; P. aeruginosa PA103 10^3, FIG. 12B, 12C
  persistent inflammatory responses (IL-1 β, TNFα) in infected diabetic wounds: does not lead to
